Data published in article PMC12525657 (Molecules, 2025).

The molecules below were run against NP (Influenza A virus, UniProt P15682) (assay: biochemical).
Format: binding

Chain of NP (P15682 whole entry): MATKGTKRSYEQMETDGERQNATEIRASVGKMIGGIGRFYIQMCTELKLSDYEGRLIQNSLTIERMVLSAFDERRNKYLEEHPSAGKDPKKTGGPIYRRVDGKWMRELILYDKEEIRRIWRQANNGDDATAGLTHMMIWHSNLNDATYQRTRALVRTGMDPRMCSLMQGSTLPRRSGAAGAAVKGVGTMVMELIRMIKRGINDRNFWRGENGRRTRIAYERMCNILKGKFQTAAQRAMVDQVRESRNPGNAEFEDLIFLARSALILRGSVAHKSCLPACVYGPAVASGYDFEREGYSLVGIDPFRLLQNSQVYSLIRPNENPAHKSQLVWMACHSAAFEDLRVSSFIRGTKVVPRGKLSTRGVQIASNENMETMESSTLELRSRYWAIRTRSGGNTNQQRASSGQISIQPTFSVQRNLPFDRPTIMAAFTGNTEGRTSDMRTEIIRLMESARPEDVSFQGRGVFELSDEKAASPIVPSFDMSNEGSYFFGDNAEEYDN

Row | SMILES | Kd [µM] | binding affinity for NP relative to nucleozin
1 | COc1ccc(C2CC(c3c(-c4ccccc4)c4cc(Cl)ccc4[nH]c3=O)=NN2C(=O)CCC(=O)O)cc1 (centres unmarked) [Compound 8] | 78.5 | higher binding affinity for NP than nucleozin
2 | Cc1ccc([C@@H]2C=C(c3ccc(Cl)cc3)Nc3nc(NC(=O)CCCC(=O)O)nn32)cc1 [Compound 4] |  | higher binding affinity for NP than nucleozin
3 | Cc1onc(-c2ccccc2)c1C(=O)N1CCN(c2ccc([N+](=O)[O-])cc2Cl)CC1 [nucleozin, reference compound] | 9.73 | 
4 | O=C(O)CCCC(=O)Nc1nc2n(n1)[C@H](c1ccccc1)C=C(c1ccc(Cl)cc1)N2 [Compound 14] | 69.7 | higher binding affinity for NP than nucleozin
5 | COc1ccc([C@@H]2C=C(c3ccc(Cl)cc3)Nc3nc(NC(=O)CCCC(=O)O)nn32)cc1 [Compound 12] |  | higher binding affinity for NP than nucleozin
6 | O=C(O)CCC(=O)N1N=C(c2c(O)nc3ccc(Br)cc3c2-c2ccccc2)CC1c1ccco1 (centres unmarked) [Compound 1] | 150 | higher binding affinity for NP than nucleozin
7 | O=C(O)CCC(=O)N1N=C(c2c(-c3ccccc3)c3cc(Br)ccc3[nH]c2=O)C[C@@H]1c1ccc([N+](=O)[O-])cc1 [Compound 9] |  | higher binding affinity for NP than nucleozin
8 | COc1ccc([C@H]2CC(c3c(-c4ccccc4)c4cc(Br)ccc4[nH]c3=O)=NN2C(=O)CCC(=O)O)cc1 [Compound 3] | 210 | higher binding affinity for NP than nucleozin
9 | O=C(O)CCC(=O)Nc1nc2n(n1)C(c1ccc(Cl)cc1)C=C(c1ccc(Cl)cc1)N2 (centres unmarked) [Compound 13] | 38.2 | higher binding affinity for NP than nucleozin
